Consider six molecules from article PMC6315362, “Cytotoxic Potential of the Novel Horseshoe Crab Peptide Polyphemusin III” (Marine Drugs, 2018).

The subject of one data set is human red blood cells. The data set is described as follows: Hemolytic activity assay. Format: cell-based. The note with it: for hemolysis at the maximal concentration: 100 µM peptide, human red blood cells 4% (v/v) in PBS pH 7.4, 1.5 h 37 °C, 0.1% Triton X-100 = 100%. Here is the method:
Testing of the hemolytic activity of polyphemusins and tachyplesins was performed using fresh human red blood cells (hBRC). Permeabilization of erythrocyte cytoplasmic membrane results in lysis followed by the release of hemoglobin. hBRC were washed three times with phosphate buffered saline (PBS: 10 mM Na2HPO4, 1.76 mM K2HPO4, pH 7.4, containing […], and 2.7 mM KCl). Two-fold serial dilutions of the peptide solutions were added to 50 μL aliquots of hRBC in the 96-well microplate. The final hBRC concentration was of 4% (v/v) in each well, and the final volume of suspension was 100 μL. After incubation of suspensions for 1.5 h at 37 °C under stirring at 1000 rpm, centrifugation of plates was done at 700 g for 5 min. The supernatant 50 μL aliquots were then transferred into flat-bottomed 96-well microplates. The absorbance at 405 nm was measured in a microplate reader (Eppendorf, Hamburg, Germany), allowing the detection of hemoglobin release. 0.1% Triton X-100 caused a complete lysis of erythrocytes, thus hBRC treated with Triton X-100 were used as a positive control. […] The percentage of hemolysis was calculated using the following Equation (1):Hemolysis (%) = (OD405 sample − OD405 0% lysis control)/(OD405 100% lysis control − OD405 0% lysis control) × 100%(1)
The quantitative data resulted from two series of experiments were represented as average means with standard deviations. The experiments were carried out using hBRC obtained from human blood samples of independent donors.

The test system of a further data set is M. luteus B-1314. The data set can be described thus: Antimicrobial assay, broth microdilution MIC. The class given is cell-based, Micrococcus luteus. The note with it: M. luteus B-1314, Gram +, MH medium with NaCl, 24 h 37 °C, median of three independent triplicated experiments. The method, then:
(§1) Bacterial test cultures were grown in the Mueller-Hinton (MH) medium at 37 °C to mid-log phase and then diluted with the 2 x MH medium supplemented with 1.8% NaCl. 50 µL of the bacterial suspension with a final cell concentration of 10^6 CFU/mL were added to aliquots of 50 µL of the peptide solutions and serially diluted with sterilized 0.1% bovine serum albumin in 96-well flat-bottom polystyrene microplates (Eppendorf, Hamburg, Germany). Bacterial cells were incubated for 24 h at 37 °C and 900 rpm on the plate thermoshaker (Biosan, Riga, Latvia). The minimum inhibitory concentrations (MIC) were determined as the lowest peptide concentration that prevented growth of a test microorganism observed as visible turbidity. The results were expressed as median values of three independent triplicated experiments. Assessment of antimicrobial activities of the recombinant PM III, other polyphemusins, and tachyplesins was conducted against Gram-negative (Escherichia coli ML-35p, Klebsiella pneumoniae (clinical isolate, CI 287), Pseudomonas aeruginosa PAO1) and Gram-positive (Staphylococcus aureus ATCC 29213, Staphylococcus aureus 209P, Bacillus subtilis B-886, Micrococcus luteus B-1314) bacteria.
(In broth dilution the organism is exposed to a series of concentrations in liquid medium.)

The test system of another data set is P. aeruginosa PAO1. The data set can be described thus: Antimicrobial assay, broth microdilution MIC. Format: cell-based, Pseudomonas aeruginosa. The note with it: P. aeruginosa PAO1, Gram -, MH medium with NaCl, 24 h 37 °C, median of three independent triplicated experiments. The method, then: as §1
A short description of data set [1]: RP-HPLC retention time as measure of hydrophobicity. The class given is physicochemical. The note with it: semi-preparative RP-HPLC, C18 column, linear gradient 5 to 80% (v/v) acetonitrile in water with 0.1% TFA within 1 h; used as indicator of hydrophobicity. The source says:
The PM III IC50 values were lower than those determined for PM I and PM II. We speculate that the higher cytotoxicity of PM III might be due to its higher hydrophobicity. In comparison to other tested peptides, the retention time of PM III measured during RP-HPLC indicated its higher hydrophobicity (Table 1). […] Increased hydrophobicity of these analogs caused higher cytotoxic effects. […] Cell membranes contain different phospholipids, which sustain the amphipathic features due to the formation of hydrophilic and hydrophobic domains in the membrane structure. Well-known differences between the composition of bacterial and mammalian cell membranes provide the evidence for selectivity of the peptides’ action. Bacterial membranes predominantly consist of phosphatidylserine, phosphatidylglycerol, and cardiolipin having a net negative charge. Tumor cell bilayers are also enriched in anionic molecules, such as phosphatidylserine, sialylated gangliosides, O-glycosylated mucins, and heparin sulfate. In contrast, zwitterionic phospholipids—phosphatidylcholine, phosphatidylethanolamine, and sphingomyelin—are abundant in the cytoplasmic membranes of non-cancer mammalian cells. Electrically neutral normal mammalian membranes prevent their recognition by positively charged antimicrobial peptides, and binding to these membranes is enabled by hydrophobic interactions. Thus, modulation of hydrophobicity of antimicrobial peptides, and also peptoid molecules, may be followed by non-specific interaction with erythrocytes as it was shown in previously published studies. […] Suboptimal high hydrophobic properties may not only result in increased toxicity to erythrocytes, but even in a reduction of antibacterial activity. Several protegrin-1 synthetic analogs with different hydrophobicities were characterized earlier. The analog with substitutions of valine by leucine that was more hydrophobic than naturally occurring protegrin-1 and the analog with substitutions of valine by fluorinated leucine had the most hydrophobic properties than other tested peptides. […] Therefore, half-hemolysis concentration and IC50 effective concentration were in different ranges.

Where a SMILES comes first, the peptide text is derived from it. Bridges are numbered along the chain shown (N, C = ends).

With `CC(C)[C@@H]1NC(=O)[C@H](CCCNC(=N)N)NC(=O)[C@H](Cc2ccccc2)NC(=O)[C@@H](NC(=O)[C@H](Cc2c[nH]c3ccccc23)NC(=O)[C@H](CCCNC(=N)N)NC(=O)[C@@H](N)CCCNC(=N)N)CSSC[C@@H](C(=O)N[C@@H](CCCNC(=N)N)C(=O)O)NC(=O)[C@H](CCCCN)NC(=O)[C@H](CCCNC(=N)N)NC(=O)[C@H](Cc2ccc(O)cc2)NC(=O)[C@@H]2CSSC[C@H](NC1=O)C(=O)N[C@@H](Cc1ccc(O)cc1)C(=O)N[C@@H](CCCNC(=N)N)C(=O)NCC(=O)N[C@@H](Cc1ccccc1)C(=O)N2` [PM I, polyphemusin I] (H-RRWCFRVCYRGFCYRKCR-OH; disulfide 4-17, 8-13 (inferred); N-terminus assumed), in the data set with human red blood cells, the “hemolysis at the maximal concentration” value is ~ 45%. Also, the MICs against M. luteus B-1314 and against P. aeruginosa PAO1 was 0.5 µM in each case. For the same molecule, in data set [1], the “RP-HPLC Retention Time” value was found to be 35.5 min.
On to `CC(C)[C@@H]1NC(=O)[C@H](CCCNC(=N)N)NC(=O)[C@H](Cc2ccccc2)NC(=O)[C@@H](NC(=O)[C@H](Cc2c[nH]c3ccccc23)NC(=O)[C@H](CCCNC(=N)N)NC(=O)[C@@H](N)CCCNC(=N)N)CSSC[C@@H](C(=O)N[C@@H](CCCNC(=N)N)C(=O)O)NC(=O)[C@H](CCCCN)NC(=O)[C@H](CCCNC(=N)N)NC(=O)[C@H](Cc2ccc(O)cc2)NC(=O)[C@@H]2CSSC[C@H](NC1=O)C(=O)N[C@@H](Cc1ccc(O)cc1)C(=O)N[C@@H](CCCCN)C(=O)NCC(=O)N[C@@H](Cc1ccccc1)C(=O)N2` [PM II, polyphemusin II] (H-RRWCFRVCYKGFCYRKCR-OH; disulfide 4-17, 8-13 (inferred); N-terminus assumed), for which, in the data set with human red blood cells, the “hemolysis at the maximal concentration” value is recorded as ~ 30%. In addition, the MICs against M. luteus B-1314 was found to be 1 µM; against P. aeruginosa PAO1, 0.5 µM. Besides, in data set [1], the “RP-HPLC Retention Time” value is recorded as 35.4 min.
`CC(C)[C@@H]1NC(=O)[C@H](CCCNC(=N)N)NC(=O)[C@H](Cc2ccccc2)NC(=O)[C@@H](NC(=O)CNC(=O)[C@H](CCCNC(=N)N)NC(=O)[C@@H](N)CCCNC(=N)N)CSSC[C@@H](C(=O)N[C@@H](CCCNC(=N)N)C(=O)O)NC(=O)[C@H](CCCNC(=N)N)NC(=O)[C@H](CCC(N)=O)NC(=O)[C@H](Cc2ccccc2)NC(=O)[C@@H]2CSSC[C@H](NC1=O)C(=O)N[C@@H](Cc1ccc(O)cc1)C(=O)N[C@@H](CCCNC(=N)N)C(=O)NCC(=O)N[C@@H](Cc1ccccc1)C(=O)N2` [PM III, polyphemusin III] (H-RRGCFRVCYRGFCFQRCR-OH; disulfide 4-17, 8-13 (inferred); N-terminus assumed): the “HC50 relative to IC50 measured for the HL-60 cell line” value with human red blood cells (HC50 / IC50 (HL-60)) was 18 fold. Further, the “half-hemolysis concentration (HC50)” value with human red blood cells (fresh human red blood cells 4% (v/v) in PBS pH 7.4, 1.5 h 37 °C, absorbance 405 nm, two independent series of triplicated experiments) worked out at 46 µM. Besides, the MICs against M. luteus B-1314 and against P. aeruginosa PAO1 was 0.5 µM throughout. Further, the “RP-HPLC Retention Time” value in data set [1] is 36.2 min.
Regarding `CC[C@H](C)[C@@H]1NC(=O)CNC(=O)[C@H](CCCNC(=N)N)NC(=O)[C@H](Cc2ccc(O)cc2)NC(=O)[C@@H]2CSSC[C@H](NC1=O)C(=O)N[C@@H](Cc1ccc(O)cc1)C(=O)N[C@@H](CCCNC(=N)N)C(=O)N[C@@H](CCCNC(=N)N)C(=O)N[C@H](C(=O)N[C@@H](CCCNC(=N)N)C(=O)O)CSSC[C@H](NC(=O)[C@H](Cc1c[nH]c3ccccc13)NC(=O)[C@@H](N)CCCCN)C(=O)N[C@@H](Cc1ccccc1)C(=O)N[C@@H](CCCNC(=N)N)C(=O)N[C@@H](C(C)C)C(=O)N2` [TP I, tachyplesin I] (H-KWCFRVCYRGICYRRCR-OH; disulfide 3-16, 7-12 (inferred); N-terminus assumed), in the data set on human red blood cells, the “hemolysis at the maximal concentration” value was 38%. Further, the MICs in the data set on M. luteus B-1314 was determined as 1 µM; against P. aeruginosa PAO1, 0.5 µM. Further, in data set [1], the “RP-HPLC Retention Time” value is listed as 35.5 min.
On the same counts, the results for `CC[C@H](C)[C@@H]1NC(=O)CNC(=O)[C@H](CCCNC(=N)N)NC(=O)[C@H](Cc2ccc(O)cc2)NC(=O)[C@@H]2CSSC[C@H](NC1=O)C(=O)N[C@@H](Cc1ccc(O)cc1)C(=O)N[C@@H](CCCNC(=N)N)C(=O)N[C@@H](CCCCN)C(=O)N[C@H](C(=O)N[C@@H](CCCNC(=N)N)C(=O)O)CSSC[C@H](NC(=O)[C@H](Cc1c[nH]c3ccccc13)NC(=O)[C@@H](N)CCCNC(=N)N)C(=O)N[C@@H](Cc1ccccc1)C(=O)N[C@@H](CCCNC(=N)N)C(=O)N[C@@H](C(C)C)C(=O)N2` [TP II, tachyplesin II] (H-RWCFRVCYRGICYRKCR-OH; disulfide 3-16, 7-12 (inferred); N-terminus assumed) are 33%, 1 µM, 0.5 µM and 35.9 min.
Take `CC[C@H](C)[C@@H]1NC(=O)CNC(=O)[C@H](CCCNC(=N)N)NC(=O)[C@H](Cc2ccc(O)cc2)NC(=O)[C@@H]2CSSC[C@H](NC1=O)C(=O)N[C@@H](Cc1ccc(O)cc1)C(=O)N[C@@H](CCCNC(=N)N)C(=O)N[C@@H](CCCCN)C(=O)N[C@H](C(=O)N[C@@H](CCCNC(=N)N)C(=O)O)CSSC[C@H](NC(=O)[C@H](Cc1c[nH]c3ccccc13)NC(=O)[C@@H](N)CCCCN)C(=O)N[C@@H](Cc1ccccc1)C(=O)N[C@@H](CCCNC(=N)N)C(=O)N[C@@H](C(C)C)C(=O)N2` [TP III, tachyplesin III] (H-KWCFRVCYRGICYRKCR-OH; disulfide 3-16, 7-12 (inferred); N-terminus assumed): the “hemolysis at the maximal concentration” value in the data set with human red blood cells is listed as 20%. The MICs against M. luteus B-1314 came out at 2 µM; in the data set on P. aeruginosa PAO1, 0.5 µM. Also, the “RP-HPLC Retention Time” value in data set [1] is recorded as 35.5 min.
